Test results: patent US20180045715A1, “STRUCTURE AND FUNCTION OF THE SALICYCLIC ACID BINDING SITES ON HUMAN HMGB1 AND METHODS OF USE THEREOF FOR THE RATIONAL DESIGN OF BOTH SALICYCLIC ACID DERIVATIVES AND OTHER AGENTS THAT ALTER ANIMAL AND PLANT HMGBS ACTIVITIES” (Boyce Thompson Institute for Plant Research, Inc., priority 2015, published 2018)
Numbering of substitutions follows the chain as printed. Blank lines part the entries; values can stand above or below the compound they belong to.

How the values were obtained:
AtHMGB1 = target: T1, AtHMGB1 (Arabidopsis thaliana, UniProt O49595); assay: SPR: AtHMGB1 binding to immobilized 3AESA
T1 sequence (O49595 1-178): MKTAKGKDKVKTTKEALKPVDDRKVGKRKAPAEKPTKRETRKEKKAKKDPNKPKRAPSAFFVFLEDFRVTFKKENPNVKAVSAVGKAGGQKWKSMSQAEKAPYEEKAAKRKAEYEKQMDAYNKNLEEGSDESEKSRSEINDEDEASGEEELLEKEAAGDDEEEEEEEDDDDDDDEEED
Method: For SPR, 3-AESA was immobilized on a CM5 sensor chip (GE Healthcare) using the amine coupling kit (GE Healthcare). To test SA binding activity, 0.5 μM HMGB1 in HBS-EP buffer (0.01 M HEPES, pH 7.4, 0.15 M NaCl, 3 mM EDTA, 0.005% v/v Surfactant P20; GE Healthcare) without or with varying concentrations of SA was flowed through 3-AESA-immobilized or mock-coupled flow cells. The binding signals were determined by subtracting out the signal from the mock-coupled flow cell.

AtHMGB3 = target: T2, AtHMGB3 (Arabidopsis thaliana, UniProt P93047); assay: SPR: AtHMGB3 binding to immobilized 3AESA; set-up: providing a full length Arabidopsis thaliana HMGB1 or HMGB3 (AtHMGB1 or AtHMGB3) protein; 6x His; made in house; host or cells: Escherichia coli BL21
T2 sequence (P93047 1-141): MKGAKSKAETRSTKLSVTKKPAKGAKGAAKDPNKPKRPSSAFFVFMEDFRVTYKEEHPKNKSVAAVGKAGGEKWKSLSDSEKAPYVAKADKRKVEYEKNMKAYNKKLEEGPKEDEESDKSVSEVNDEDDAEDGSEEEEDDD

[1] = de-acetylation by esterases in human plasma (Costello et al., 1984); cited from earlier work
COX = conditions: cited from earlier work
[2] = target: T3, mutant (R24A/K28A) HMGB1^RE (Homo sapiens, UniProt P09429, K28A/R24A); assay: Chemotaxis assay with mutant R24A/K28A HMGB1^RE; type: cell-based; conditions: NIH/3T3 fibroblasts
T3 construct: (i) full length: residues 2-215; made in house
T3 sequence (P09429 2-215 R24A/K28A): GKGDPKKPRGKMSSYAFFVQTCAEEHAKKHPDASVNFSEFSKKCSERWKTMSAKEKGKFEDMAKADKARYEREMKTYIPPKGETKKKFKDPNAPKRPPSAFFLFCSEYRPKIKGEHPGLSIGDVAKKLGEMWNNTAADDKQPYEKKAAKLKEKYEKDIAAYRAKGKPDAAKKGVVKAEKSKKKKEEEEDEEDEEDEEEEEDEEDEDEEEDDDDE
Method: (§1) Cell migration was assayed using Boyden chambers (Venereau et al., 2012). The downside of PVP-free polycarbonate filters (8 μm pores; Millipore) was coated with 50 μg/ml fibronectin (Sigma). Serum-free DMEM (negative control), DMEM containing 0.1 nM fMLP (positive control; Sigma), or DMEM containing 1 nM HMGB1^RE or HMGB1^SS were placed in the lower chamber, together with different concentrations of SA (Sigma). The mouse 3T3 fibroblast cells were cultured in DMEM media supplemented with 10% CS until 90% confluence, washed twice with PBS to eliminate any floating cells, and harvested with trypsin. 50,000 cells in 200 μL were added to the upper chamber, and cells were left to migrate for 3 h at 37° C. Non-migrating cells were removed with a cotton swab, and migrated cells were fixed with ethanol and stained with Giemsa.
(§2) An alternative explanation is that SA, at low concentrations, affects another factor in vivo, which results indirectly in suppression of HMGB1^RE-induced chemotaxis. […] Therefore, these residues were mutated to Ala to form the double mutant Arg24Ala/Lys28Ala (R24A/K28A).

[3] = target: T4, full-length (FL) R24A/K28A HMGB1 (Homo sapiens, UniProt P09429, K28A/R24A); assay: 15N-1H HSQC NMR binding to R24A/K28A HMGB1; conditions: ~0.1 mM protein; 15 mM SA, 3 mM ac3AESA or 3 mM amorfrutin B1
T4 construct: (i) full length: residues 2-215; made in house
T4 sequence (P09429 2-215 R24A/K28A): T3 sequence (P09429 2-215 R24A/K28A)
Method: […] Samples were analyzed with and without SA or other candidate inhibitors at 25° C. Chemical shift perturbation studies were carried out using either a Bruker Avance 800 MHz Avance NMR system with 4-mm NMR tubes, or using a Bruker Avance 600 MHz NMR spectrometer equipped with a 1.7 mm micro cryoprobe. 1024 or 2048 complex points were acquired for each of 80 to 200 increments in the ^15N dimension with a recycle delay of 1 s. Each spectrum was typically acquired for 2-8 hrs. Chemical shift assignments were determined using a uniformly ^13C,^15N-enriched HMGB1-ΔC construct at 25° C. via traditional triple-resonance NMR experiments (Biamonti et al., 1994; Moseley et al., 2001) recorded on a Bruker 800 MHz NMR spectrometer equipped with a 5 mm cryoprobe. Disulfide oxidation studies were carried out using the ^15N-^1H SOFAST-HMQC NMR experiment (Schanda & Brutscher, 2005; Schanda et al., 2005; Zandarashvili et al., 2013).
as §2

[4] = test system: fMLP-induced migration of NIH/3T3 fibroblast cells; assay: Chemotaxis assay: fMLP-induced fibroblast migration (specificity control); type: cell-based, mouse; conditions: 0.1 nM fMLP
Method: as §1
(§3) HMGB1^RE acts as a chemo-attractant that mediates migration of several cell types, including monocytes, fibroblasts, mesoangioblasts, smooth muscle cells, and colon cancer cells (Venereau et al., 2012). To determine whether SA alters HMGB 1's chemo-attractant activity, a chemotaxis assay was performed with mouse 3T3 fibroblasts.

HMGB1^RE = target: T5, HMGB1^RE (Homo sapiens, UniProt P09429); assay: Chemotaxis assay (Boyden chambers): HMGB1^RE-elicited migration of mouse 3T3 fibroblasts; type: cell-based
T5 construct: (i) full length: residues 2-215; 6x His (cleaved yes); made in house; host or cells: Escherichia coli BL21
T5 sequence (P09429 2-215): T3 sequence (P09429 2-215 R24A/K28A) with A23R, A27K
Method: as §1, §3

SMILES: NCCc1cccc(C(=O)O)c1O [3AESA, 3-aminoethyl SA]
binding of AtHMGB1 to 3AESA immobilized to SPR sensor chip (AtHMGB1): effectively bound
binding of AtHMGB3 to 3AESA immobilized to SPR sensor chip (AtHMGB3): effectively bound

SMILES: CC(=O)Oc1ccccc1C(=O)O [aspirin, acetylsalicylic acid]
half-life of conversion to SA [1]: 13 to 19.5 min
IC50, inhibition of COX activity in vitro (COX; literature (Mitchell et al., 1997; Vane, 1971)): 6.3 µg/mL
IC50 (COX; literature, conversion in parentheses, read-out: IC50, inhibition of COX activity in vitro): ~35 µM

inhibition of R24A/K28A HMGB1^RE's chemo-attractant activity [2]: only partially
binding to R24A/K28A HMGB1 (CSPs in HSQC) [3]: do not bind
IC50 (HMGB1^RE; NIH/3T3 fibroblasts, 1 nM HMGB1^RE, read-out: IC50, inhibition of chemo-attractant activity of HMGB1^RE): ~0.06 µM
times more potent than SA at inhibiting the chemo-attractant activity of HMGB1^RE (HMGB1^RE; relative to SA): 50-70 times
SMILES: COc1cc(CCc2ccccc2)c(C(=O)O)c(O)c1C/C=C(\C)CCC=C(C)C [amorfrutin B1]
effect on fibroblast migration induced by fMLP [4]: but not of 0.1 nM fMLP, was blocked
